Assay results as given in publication PMC9013686, “Inter-individual variation in chlorpyrifos toxicokinetics characterized by physiologically based kinetic (PBK) and Monte Carlo simulation comparing human liver microsome and Supersome™ cytochromes P450 (CYP)-specific kinetic data as model input” (Archives of Toxicology, 2022).
Where two headings read alike, the source gives them in different places.

Tests used:
pooled HLMs (CYPs) = conditions: cited from earlier work
CYP2B6 [1] = molecular target: T1, CYP2B6 (Homo sapiens, UniProt P20813); test: Supersome CYP2B6 kinetic incubations; type: in vitro ADME; parameters: purchased Corning (Amsterdam, The Netherlands); host or cells: baculovirus-transfected insect cells; conditions: for Scaled Vmax(app): CYP2B6 scaled to whole liver by Eq. 3; for Vmax (app) / Km: Supersome CYP2B6; for Km: human, recombinant CYP2B6 Supersomes, pH 7.4, Km(app)
T1 sequence (P20813 1-491): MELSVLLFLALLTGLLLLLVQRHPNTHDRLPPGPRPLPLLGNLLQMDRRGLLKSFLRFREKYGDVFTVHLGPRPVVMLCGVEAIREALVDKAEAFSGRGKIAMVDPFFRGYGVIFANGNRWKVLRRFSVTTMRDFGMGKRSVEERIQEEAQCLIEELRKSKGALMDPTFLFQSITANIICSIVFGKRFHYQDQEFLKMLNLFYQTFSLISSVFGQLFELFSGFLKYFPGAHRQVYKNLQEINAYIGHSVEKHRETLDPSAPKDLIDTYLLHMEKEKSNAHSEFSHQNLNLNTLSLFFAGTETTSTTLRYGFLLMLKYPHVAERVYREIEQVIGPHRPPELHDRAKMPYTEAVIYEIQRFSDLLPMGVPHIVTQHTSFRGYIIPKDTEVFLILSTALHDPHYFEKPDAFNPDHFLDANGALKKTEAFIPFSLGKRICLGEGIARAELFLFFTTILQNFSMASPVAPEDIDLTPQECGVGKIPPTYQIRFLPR
Description: The final incubations were carried out in 50 mM Tris–HCl (pH 7.4) containing 5 mM MgCl2, 1 mM EDTA (as an A-esterase PON1 inhibitor) (Bizoń and Milnerowicz [2018]), 50 µM iso-OMPA (as a B-esterases inhibitor) (Lane et al. [2006]), Supersome™ isoform (at final concentration of 0.005 nmol CYP/ml for 1A2, 0.001 nmol CYP/ml for 2B6, 0.01 nmol CYP/ml for 2C19, and 0.01 nmol CYP/ml for 3A4) and CPF at different final concentrations (0.05, 0.1, 0.25, 0.5, 1, 5 and 10 µM for 1A2, 0.05, 0.1, 0.25, 0.5, 1, 5 10 and 25 µM for 2B6, 1, 2.5, 5, 10, 25 and 50 µM for 2C19, and 0.5, 1, 2.5, 5, 10, 25 and 50 µM for 3A4), which were added from 100 times concentrated stock solutions in ACN. After 1 min preincubation in a 37 °C water bath, 5 µl NADPH (final concentration 1 mM) was added to the incubation system. Control incubations were performed by replacing NADPH with the same amount of Tris–HCl (pH 7.4). The total volume of the incubation mixtures was 200 µl. The incubations lasted for 2 min at 37 °C and were terminated by addition of 50 µl ice cold ACN and subsquently put on ice. After that, samples were centrifuged at 16,000 g (4 ℃) for 5 min and supernatants of samples were separated into two equal portions for Ultra-Performance Liquid Chromatography-Photodiode Array (UPLC-PDA) and Liquid Chromatography Mass Spectrometry (LC–MS/MS) analysis, respectively.
To normalize for differences in intrinsic CYP activity between Supersome™ and pooled HLMs and enable scaling of the activities to the in vivo situation, CYP-specific ISEF values need to be established. […] The incubation method was similar as used for the CPF kinetic incubation assay described above, except that certain incubation conditions were replaced by the conditions listed in Table 1. The samples obtained were analyzed by UPLC-PDA for acetaminophen, 4-hydroxymephenytoin, and 6β-hydroxytestosterone formation catalyzed by 1A2, 2C19 and 3A4, or LC–MS/MS for (±)-hydroxybupropion formation catalyzed by 2B6.
As mentioned before, the in vitro apparent kinetic parameters (Vmax and Km) for pathway 1 and pathway 2 in the HLM-based approach, and pathway 3 in both approaches were all obtained directly from reported studies using pooled HLMs (Buratti et al. [2003]; Sams et al. [2004]; Zhao et al. [2019]). Therefore, no extra calculations were required to define these parameters. The kinetic parameters for the ISEF calculation, pathway 1 and 2 in the Supersome™-based approach, and pathway 4 in both approaches (25 individuals) were all obtained by fitting the experimental data to the Michaelis–Menten model using GraphPad (GraphPad Prism 5.0 software, San Diego, CA, USA). It should be noted that the kinetic parameters for pathway 4 used in the two approaches were calculated as mean of the kinetic parameters (Vmax and Km) obtained using 25 individual HP samples (with correction for total protein concentration of each plasma sample).
The in vivo Kmi values were assumed to be equal to the apparent Kmi(app) values (µM) obtained in the in vitro incubations, while the in vivo Vmaxi for each CYP isoform was derived from their corresponding apparent CYP isoform Vmaxi(app) (pmol/min/pmolCYP) using Eq. 3:3 Vmaxi=Vmaxiapp×CYPiabundance×ISEF×60×MPL×1000×VL/1,000,000,

CYP2C19 = CYP2C19 (Homo sapiens, UniProt P33261); conditions: bioactivation of CPF, ref Foxenberg et al. [2007]; cited from earlier work
Sequence of CYP2C19 (P33261 whole entry): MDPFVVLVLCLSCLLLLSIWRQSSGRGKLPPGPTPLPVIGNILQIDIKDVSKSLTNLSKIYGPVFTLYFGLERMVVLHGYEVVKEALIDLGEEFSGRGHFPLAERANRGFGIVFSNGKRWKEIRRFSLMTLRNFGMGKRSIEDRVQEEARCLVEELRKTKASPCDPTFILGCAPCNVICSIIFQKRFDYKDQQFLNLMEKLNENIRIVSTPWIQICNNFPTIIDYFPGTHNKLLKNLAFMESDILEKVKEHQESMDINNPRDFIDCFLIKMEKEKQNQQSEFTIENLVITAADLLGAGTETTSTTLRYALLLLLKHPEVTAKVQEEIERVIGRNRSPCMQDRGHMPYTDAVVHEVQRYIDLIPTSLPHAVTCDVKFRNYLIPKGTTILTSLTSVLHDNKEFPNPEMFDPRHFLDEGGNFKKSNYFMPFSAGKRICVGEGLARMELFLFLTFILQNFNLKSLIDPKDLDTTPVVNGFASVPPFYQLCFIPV

CYP2B6 [2] = molecular target: T1, CYP2B6; conditions: bioactivation of CPF, ref Foxenberg et al. [2007]; cited from earlier work
CYP3A4 = CYP3A4 (Homo sapiens, UniProt P08684); conditions: Supersome CYP3A4; bioactivation of CPF; ref Foxenberg et al. ([2007]); cited from earlier work
Sequence of CYP3A4 (P08684 2-503 limits assumed): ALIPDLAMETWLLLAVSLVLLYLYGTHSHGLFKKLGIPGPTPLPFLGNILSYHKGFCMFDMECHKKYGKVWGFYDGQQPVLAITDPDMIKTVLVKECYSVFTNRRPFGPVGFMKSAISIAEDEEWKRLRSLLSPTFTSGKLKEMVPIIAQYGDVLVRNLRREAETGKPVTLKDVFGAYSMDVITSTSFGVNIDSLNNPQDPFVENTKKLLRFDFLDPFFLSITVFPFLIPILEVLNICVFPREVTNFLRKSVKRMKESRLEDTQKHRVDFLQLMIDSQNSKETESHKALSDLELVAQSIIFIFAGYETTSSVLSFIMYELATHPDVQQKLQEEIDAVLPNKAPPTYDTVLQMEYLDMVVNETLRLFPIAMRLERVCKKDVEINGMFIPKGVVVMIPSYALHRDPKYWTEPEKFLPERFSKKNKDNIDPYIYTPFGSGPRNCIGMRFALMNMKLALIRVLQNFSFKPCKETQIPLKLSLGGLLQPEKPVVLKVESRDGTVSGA

[3] = Pathway 2 (CPF to TCPy), pooled HLMs, CPF 3–100 µM, ref Sams et al. ([2004])

CCOP(=S)(OCC)Oc1nc(Cl)c(Cl)cc1Cl [CPF, Chlorpyrifos]
Vmax (high affinity) (pooled HLMs (CYPs); Pathway 1 (CPF to CPO), pooled HLMs, CPF 0.02–10 µM, ref Buratti et al. ([2003])): 0.275 nmol/min/mg microsomal protein | Vmax (low affinity) (pooled HLMs (CYPs); Pathway 1 (CPF to CPO), pooled HLMs, CPF 3–100 µM, ref Sams et al. ([2004])): 0.353 nmol/min/mg microsomal protein | Km (pooled HLMs (CYPs); [3]): 12 µM | Vmax (pooled HLMs (CYPs); [3]): 0.653 nmol/min/mg microsomal protein | Km (pooled HLMs (CYPs); read-out: Km (high affinity), Pathway 1 (CPF to CPO), pooled HLMs, CPF 0.02–10 µM, ref Buratti et al. ([2003])): 0.27 µM | Km (pooled HLMs (CYPs); read-out: Km (low affinity), apparent Km in pooled HLMs, Pathway 1 (CPF to CPO), CPF 3–100 µM, ref Sams et al. ([2004])): 29.8 µM | Scaled Vmax(app) (CYP2B6 [1]; Pathway 1 (CPF to CPO)): 203.94 µmol/h | Vmax (app) (CYP2B6 [1]; Pathway 1 (CPF to CPO)): 7.76 pmol/min/pmolCYP | Scaled Vmax(app) (CYP2B6 [1]; Pathway 2 (CPF to TCPy)): 144.28 µmol/h | Vmax (app) (CYP2B6 [1]; Pathway 2 (CPF to TCPy)): 5.49 pmol/min/pmolCYP | Km (CYP2B6 [1]; Pathway 1 (bioactivation of CPF to CPO)): 140 nM | Km (CYP2B6 [1]; Pathway 2 (detoxification of CPF to TCPy)): 1280 nM | Km (CYP2C19): 1230 nM | Km (CYP2B6 [2]): 810 nM | Km (CYP3A4): 27.3 µM
